Where a name gives a salt, the structure may show the parent alone.
molecular target: TrkA (Homo sapiens (Human), UniProt P04629); experiment: TrkA Omnia Assay; assay type: biochemical; settings: averaged IC50; 20 nM enzyme, 500 μM ATP, 10 μM peptide substrate
Summary of the method: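 Continuous fluorescent kinase read-out (ex 360 nm, em 485 nm) over 70 min, with initial rates fitted to 4- or 5-parameter logistic curves for IC50. Final conditions: 500 μM ATP, 10 μM Omnia Tyr Peptide #4, 20 nM TrkA, MOPS pH 7.5 buffer with MgCl2 and Triton X-100; enzyme and compound preincubated 10 min at ambient temperature.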

Sequence of TrkA (P04629 33-796): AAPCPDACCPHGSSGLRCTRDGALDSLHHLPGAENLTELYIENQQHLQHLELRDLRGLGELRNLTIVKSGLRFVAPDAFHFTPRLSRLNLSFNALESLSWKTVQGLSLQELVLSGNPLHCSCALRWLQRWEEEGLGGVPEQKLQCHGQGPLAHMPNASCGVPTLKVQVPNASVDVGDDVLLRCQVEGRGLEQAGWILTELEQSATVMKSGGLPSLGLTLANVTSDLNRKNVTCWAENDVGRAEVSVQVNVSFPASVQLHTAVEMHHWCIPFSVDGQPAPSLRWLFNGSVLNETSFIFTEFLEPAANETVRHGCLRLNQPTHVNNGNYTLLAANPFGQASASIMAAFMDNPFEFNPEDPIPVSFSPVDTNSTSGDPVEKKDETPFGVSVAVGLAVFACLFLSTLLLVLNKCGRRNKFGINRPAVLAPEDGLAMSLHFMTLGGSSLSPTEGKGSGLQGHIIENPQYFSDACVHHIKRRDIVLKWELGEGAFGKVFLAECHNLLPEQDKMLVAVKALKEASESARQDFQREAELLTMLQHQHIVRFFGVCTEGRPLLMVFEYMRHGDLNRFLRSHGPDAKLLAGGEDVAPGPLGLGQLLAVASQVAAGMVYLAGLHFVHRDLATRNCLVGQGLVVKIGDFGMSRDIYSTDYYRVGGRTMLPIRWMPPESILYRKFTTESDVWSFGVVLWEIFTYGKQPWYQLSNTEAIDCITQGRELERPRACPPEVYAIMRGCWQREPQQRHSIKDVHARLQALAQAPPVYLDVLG

Row | SMILES | IC50 [nM]
1 | COCC(N1C[C@@H](NC(=O)Nc2c3c(nn2-c2ccccc2)CCC3)[C@H](c2ccc(F)c(F)c2)C1)C(C)(C)O (stereo partly drawn) [Example 261, 1-((3S,4R)-4-(3,4-difluorophenyl)-1-(3-hydroxy-1-methoxy-3-methylbutan-2-yl)pyrrolidin-3-yl)-3-(2-phenyl-2,4,5,6-tetrahydrocyclopenta[c]pyrazol-3-yl)urea] | 100 to 1000
2 | COCC(C(=O)O)N1C[C@@H](NC(=O)Nc2c3c(nn2-c2ccccc2)CCC3)[C@H](c2ccc(F)c(F)c2)C1 (stereo partly drawn) [Example 262, 2-((3R,4S)-3-(3,4-difluorophenyl)-4-(3-(2-phenyl-2,4,5,6-tetrahydrocyclopenta[c]pyrazol-3-yl)ureido)pyrrolidin-1-yl)-3-methoxypropanoic acid hydrochloride] | 1000 to 10000
3 | COCC(CO)N1C[C@@H](NC(=O)Nc2c(Cl)c(-c3cnn(C)c3)nn2-c2ccccc2)[C@H](c2ccc(F)c(F)c2)C1 (some centres unmarked) [Example 264] | < 100
4 | Cc1nn(-c2ccccc2)c(NC(=O)N[C@H]2CN(CC(F)(F)F)C[C@@H]2c2ccccc2)c1C [Example 265, 1-(3,4-dimethyl-1-phenyl-1H-pyrazol-5-yl)-3-((3R,4S)-4-phenyl-1-(2,2,2-trifluoroethyl)pyrrolidin-3-yl)urea] | < 100
5 | CCOc1nn(-c2ccccc2)c(NC(=O)N[C@H]2CN(CC(F)(F)F)C[C@@H]2c2ccccc2)c1C [Example 267, 1-(3-ethoxy-4-methyl-1-phenyl-1H-pyrazol-5-yl)-3-((3R,4S)-4-phenyl-1-(2,2,2-trifluoroethyl)pyrrolidin-3-yl)urea] | < 100
6 | Cc1c(OC[C@H]2COC(C)(C)O2)nn(-c2ccccc2)c1NC(=O)N[C@H]1CN(CC(F)(F)F)C[C@@H]1c1ccccc1 [Example 271, 1-(3-(((S)-2,2-dimethyl-1,3-dioxolan-4-yl)methoxy)-4-methyl-1-phenyl-1H-pyrazol-5-yl)-3-((3R,4S)-4-phenyl-1-(2,2,2-trifluoroethyl)pyrrolidin-3-yl)urea] | < 100
7 | Cc1c(OC[C@H](O)CO)nn(-c2ccccc2)c1NC(=O)N[C@H]1CN(CC(F)(F)F)C[C@@H]1c1ccccc1 [Example 272, 1-(3-((R)-2,3-dihydroxvpropoxy)-4-methyl-1-phenyl-1H-pyrazol-5-yl)-3-((3R,4S)-4-phenyl-1-(2,2,2-trifluoroethyl)pyrrolidin-3-yl)urea] | < 100
8 | C[C@H]1[C@@H](c2ccccc2)C(NC(=O)Nc2c3c(nn2-c2ccccc2)CCC3)CN1CC(F)(F)F (stereo partly drawn) [Example 274, (R,S)-1-((3β,4α,5α)-5-methyl-4-phenyl-1-(2,2,2-trifluoroethyl)pyrrolidin-3-yl)-3-(2-phenyl-2,4,5,6-tetrahydrocyclopenta[c]pyrazol-3-yl)urea] | 100 to 1000
9 | CCOc1nn(-c2ccccc2)c(NC(=O)N[C@@H]2CN([C@@H](CO)C(F)(F)F)C[C@H]2c2ccc(F)c(F)c2)c1C [Example 275, 1-((3S,4R)-4-(3,4-difluorophenyl)-1-((S)-1,1,1-trifluoro-3-hydroxypropan-2-yl)pyrrolidin-3-yl)-3-(3-ethoxv-4-methyl-1-phenyl-1H-pyrazol-5-yl)urea] | 100 to 1000
10 | COC[C@H](N1C[C@@H](NC(=O)Nc2c(C)c(OC[C@H](C)O)nn2-c2ccccc2)[C@H](c2ccc(F)c(F)c2)C1)C(F)(F)F [Example 277, 1-((3S,4R)-4-(3,4-difluorophenyl)-1-((S)-1,1,1-trifluoro-3-methoxypropan-2-yl)pyrrolidin-3-yl)-3-(3-((S)-2-hydroxypropoxy)-4-methyl-1-phenyl-1H-pyrazol-5-yl)urea] | < 100
11 | COC[C@@H](N1C[C@@H](NC(=O)Nc2c(C)c(OC[C@H](C)O)nn2-c2ccccc2)[C@H](c2ccc(F)c(F)c2)C1)C(F)(F)F [Example 279, 1-((3S,4R)-4-(3,4-difluorophenyl)-1-((R)-1,1,1-trifluoro-3-methoxypropan-2-yl)pyrrolidin-3-yl)-3-(3-((S)-2-hydroxypropoxy)-4-methyl-1-phenyl-1H-pyrazol-5-yl)urea] | 100 to 1000
12 | COCCCc1nn(-c2ccccc2)c(NC(=O)N[C@@H]2CN(CCOC)C[C@H]2c2cc(F)cc(F)c2)c1C [Example 281, 1-((3S,4R)-4-(3,5-difluorophenyl)-1-(2-methoxyethyl)pyrrolidin-3-yl)-3-(3-(3-methoxypropyl)-4-methyl-1-phenyl-1H-pyrazol-5-yl)urea] | < 100

Other lines, results leading:

Row | IC50 [nM] | SMILES
13 | < 100 | CCOc1nn(-c2ccccc2)c(NC(=O)N[C@@H]2CN(C(CO)COC)C[C@H]2c2ccc(F)c(F)c2)c1C (stereo partly drawn) [Example 263, 1-((3S,4R)-4-(3,4-difluorophenyl)-1-(1-hydroxy-3-methoxypropan-2-yl)pyrrolidin-3-yl)-3-(3-ethoxy-4-methyl-1-phenyl-1H-pyrazol-5-yl)urea]
14 | < 100 | Cc1c(OCCF)nn(-c2ccccc2)c1NC(=O)N[C@H]1CN(CC(F)(F)F)C[C@@H]1c1ccccc1 [Example 266, 1-(3-(2-fluoroethoxy)-4-methyl-1-phenyl-1H-pyrazol-5-yl)-3-((3R,4S)-4-phenyl-1-(2,2,2-trifluoroethyl)pyrrolidin-3-yl)urea]
15 | < 100 | Cc1c(OCC#N)nn(-c2ccccc2)c1NC(=O)N[C@H]1CN(CC(F)(F)F)C[C@@H]1c1ccccc1 [Example 268, 1-(3-(cyanomethoxy)-4-methyl-1-phenyl-1H-pyrazol-5-yl)-3-((3R,4S)-4-phenyl-1-(2,2,2-trifluoroethyl)pyrrolidin-3-yl)urea]
16 | < 100 | Cc1c(-c2cnn(C)c2)nn(-c2ccccc2)c1NC(=O)N[C@H]1CN(CC(F)(F)F)C[C@@H]1c1ccccc1 [Example 269, 1-(1′,4-dimethyl-1-phenyl-1H,1′H-3,4′-bipyrazol-5-yl)-3-((3R,4S)-4-phenyl-1-(2,2,2-trifluoroethyl)pyrrolidin-3-yl)urea]
17 | 100 to 1000 | C[C@@H]1C(NC(=O)Nc2c3c(nn2-c2ccccc2)CCC3)[C@H](c2ccccc2)CN1CC(F)(F)F (stereo partly drawn) [Example 273, (R,S)1-((2α,3β,4α)-2-methyl-4-phenyl-1-(2,2,2-trifluoroethyl)pyrrolidin-3-yl)-3-(2-phenyl-2,4,5,6-tetrahydrocyclopenta[c]pyrazol-3-yl)urea]
18 | < 100 | CCOc1nn(-c2ccccc2)c(NC(=O)N[C@@H]2CN([C@@H](COC)C(F)(F)F)C[C@H]2c2ccc(F)c(F)c2)c1C [Example 276, 1-((3S,4R)-4-(3,4-difluorophenyl)-1-((S)-1,1,1-trifluoro-3-methoxypropan-2-yl)pyrrolidin-3-yl)-3-(3-ethoxv-4-methyl-1-phenyl-1H-pyrazol-5-yl)urea]
19 | < 100 | COC[C@@H](N1C[C@@H](NC(=O)Nc2c(Cl)c(-c3cnn(C)c3)nn2-c2ccccc2)[C@H](c2ccc(F)c(F)c2)C1)C(F)(F)F [Example 278, 1-(4-chloro-1′-methyl-1-phenyl-1H, 1′H-3,4′-bipyrazol-5-yl)-3-((3S,4R)-4-(3,4-difluorophenyl)-1-((R)-1,1,1-trifluoro-3-methoxypropan-2-yl)pyrrolidin-3-yl)urea]
20 | < 100 | COCCN1C[C@@H](NC(=O)Nc2c(C)c(C(F)(F)CO)nn2-c2ccccc2)[C@H](c2ccc(F)c(F)c2)C1 [Example 282, 1-(3-(1,1-difluoro-2-hydroxyethyl)-4-methyl-1-phenyl-1H-pyrazol-5-yl)-3-((3S,4R)-4-(3,4-difluorophenyl)-1-(2-methoxyethyl)pyrrolidin-3-yl)urea]
